These are literature values, as cited in patent publication US20050260283A1, “Composition for prevention and treatment of colon adenomas” (Medical Futures Inc., priority 2004, published 2005).

One data set has as its system colorectal cancer. The conditions noted are these: regular aspirin use; epidemiological studies (Krishnan, 1997).
For the next data set, the system named is colorectal adenomas. The settings on record: calcium supplementation; volunteers with a history of colorectal adenomas (Baron, 1999).

Take `CC(=O)Oc1ccccc1C(=O)O` [aspirin]: the “reduction in the incidence of colorectal cancer” value in the data set on colorectal cancer is reported as 40-50%.

As for `O=C([O-])[O-].[Ca+2]` [calcium carbonate], the “risk of recurrent colorectal adenomas” value in the data set with colorectal adenomas is “moderate but significant reduction”.
